What was measured:
MPO = biological target: T1, MPO (Homo sapiens, UniProt P05164); experiment: KYC/AA(n) peptide inhibition of MPO HOCl production (TMB assay) at varied pH; type: biochemical; settings: regardless of pH
T1 sequence (P05164 49-745): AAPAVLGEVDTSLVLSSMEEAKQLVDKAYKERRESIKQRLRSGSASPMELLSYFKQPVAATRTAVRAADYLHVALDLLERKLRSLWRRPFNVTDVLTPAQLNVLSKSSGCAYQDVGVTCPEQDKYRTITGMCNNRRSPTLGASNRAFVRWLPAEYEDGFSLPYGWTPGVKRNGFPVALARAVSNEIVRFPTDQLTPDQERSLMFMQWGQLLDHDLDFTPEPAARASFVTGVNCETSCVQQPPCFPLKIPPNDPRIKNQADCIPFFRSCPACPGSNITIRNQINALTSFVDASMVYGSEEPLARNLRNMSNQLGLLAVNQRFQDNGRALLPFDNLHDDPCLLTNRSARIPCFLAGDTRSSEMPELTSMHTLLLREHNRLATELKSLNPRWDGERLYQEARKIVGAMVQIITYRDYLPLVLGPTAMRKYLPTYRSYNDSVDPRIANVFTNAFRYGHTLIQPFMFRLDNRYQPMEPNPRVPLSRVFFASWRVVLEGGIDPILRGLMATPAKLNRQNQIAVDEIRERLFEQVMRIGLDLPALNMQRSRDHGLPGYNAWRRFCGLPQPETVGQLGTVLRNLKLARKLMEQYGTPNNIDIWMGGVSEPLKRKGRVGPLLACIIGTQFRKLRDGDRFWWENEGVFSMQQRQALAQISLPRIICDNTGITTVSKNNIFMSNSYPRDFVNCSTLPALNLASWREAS
From the text: Small peptides of generic formula AA(n) (where AA represents different amino acids, and n can be 2-5) are both substrates and inhibitors of MPO (alternatively, inhibitors of EPO). These peptides are […] at the active site of MPO, which subsequently decreases the production of toxic oxidants that includes but not restricted to hypochlorous acid. All MPO activities (i.e., hypochlorous acid production) described herein were quantified by the 3,3′,5,5′-tetramethylbenzidine (TMB) assay. […] The free radical itself may act as an activated species, and is stable enough to react with proximal proteins, peptides, metabolites or small molecules to effect further change. The free radical is not limited to a single target, but may effect change multiple independent targets. In a non-limiting example, the free radical goes on to form a hetero- or homo dimer via an oxidized —S—S— disulfide (or di-Selenium) linkage. Finally, the more interactions between the peptide and active site of MPO that occurs the lower numerical IC50 value of the peptide inhibitor.
KYZ is […] in the presence of MPO, which subsequently decreases the production of hypochlorous acid. All MPO activities (i.e., hypochlorous acid production) were quantified by the 3,3′,5,5′-tetramethylbenzidine (TMB) assay. The tripeptide KXZ, requires amino acid #1 (AA1, K) to be a native amino acid or an artificial amino acid (aa) with a basic side-chain such as an amine functional group (e.g., Lysine (K)). Amino acid #2 (AA2, X) is a native or artificial amino acid that may contain a polar, non-polar, or aromatic amino acid.

HMGB1 = biological target: T2, HMGB1 (Homo sapiens, UniProt P09429); experiment: Streptavidin-affinity blot of B-KYC thiylated recombinant HMGB1 and MPO in MPO reaction mixture; type: biochemical; settings: split sample, DTT 100 mM
T2 sequence (P09429 1-215): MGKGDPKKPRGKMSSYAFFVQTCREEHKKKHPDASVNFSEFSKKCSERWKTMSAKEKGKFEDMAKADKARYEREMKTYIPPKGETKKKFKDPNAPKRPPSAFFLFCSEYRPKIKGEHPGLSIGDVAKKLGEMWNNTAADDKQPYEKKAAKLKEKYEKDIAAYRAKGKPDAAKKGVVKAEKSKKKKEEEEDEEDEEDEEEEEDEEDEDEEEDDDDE
Protocol: FIG. 30. MPO Oxidizes KYC to a KYC Thiyl Radical That Thiylates HMGB1. (A) ESR spectrum of KYC thiyl S°-DMPO generated by an MPO reaction mixture containing MPO (120 nM), H2O2 (50 μM) and KYC (30 μM). (B) Streptavidin-affinity blot of KYC thiylated HMGB1 and MPO in a split sample, one half treated neat and other half treated with DTT (100 mM) to reduce disulfide bonds.
This spectrum is similar to the spectrum of DMPO-S◯-YC generated when the dipeptide YC was added to an MPO reaction mixture containing DMPO [34].
Previously we reported that KYC reduced MPO-dependent oxidative damage because KYC competes with native substrates, such as chloride and nitrite, that are oxidized to “toxic” oxidants. In 2013, we argued that KYC reduced MPO-dependent oxidative damage because the resultant KYC thiyl radical would autoscavenge to prevent radical propagation. […] To determine the radical mechanisms mediating MPO oxidation of KYC and KYC thiylation of HMGB1, we performed two experiments. In the first experiment, we trapped KYC thiyl radicals generated by MPO with DMPO (FIG. 30A), which confirms our conclusions in 2013 [27]. In the second experiment, we added recombinant HMGB1 to PBS containing MPO+H2O2+B-KYC and determined KYC thiylation by streptavidin affinity blotting. […]

RLMVEC = experiment: KYC thiylation of endothelial cell proteins in RLMVEC cultures; type: cell-based, rat
From the text: FIG. 29. Effects of Oxidative Stress on KYC Thiylation of RLMVEC Proteins. (A) Streptavidin affinity blot of KYC thiylated proteins from cell lysates prepared from RLMVEC cultures treated with B-KYC (baseline), B-KYC+MPO+H2O2 (MPO-dependent), and B-KYC+H2O2 (H2O2-dependent). (B) Immunoblot for Nrf2 in RLMVEC cultures treated as described in A. (C) Immunoblot for Keap1 in RLMVEC cultures treated as described in A. (D) Immunoblot for HMGB1 in RLMVEC cultures treated as described in A.(E) Immunoblot for β-Actin in RLMVEC cultures treated as described in A.(F) Bar chart showing relative levels of KYC thiylation, Nrf2, Keap1, and HMGB1 as a function of β-Actin (n=2, *=p<0.05, statistical analysis was preformed by ANOVA with appropriate post hoc tests).
FIG. 31. MPO Oxidation of KYC Increases KYC Thiylation of Extracellular HMGB1. […] This conclusion is based on the relative levels of KYC thiylated HMGB1 in panel A vs. KYC thiylated HMGB1 as a function of HMGB1 protein in conditioned media vs. RLMVEC cell lysates.
Rat lung microvascular endothelial cells (RLMVEC) from neonatal Sprague-Dawley rats (RN-6011) and rat endothelial growth medium (EGM, M1266SF) were from Cell Biologics (Chicago, Ill.). Amicon®Ultra-4 centrifugal concentrators with 3K cut-off (UFC800324) were from Merck Millipore Ltd (Carrigtwohill, Ireland). PierceTM Streptavidin (#88816), Protein G (#88848), Protein A Magnetic Beads (#88845), PierceTM ECL Western Blotting Substrate (#32106), and SuperSignalTM West Femto Maximum Sensitivity Substrate (#34095) were from Thermo Fisher Scientific (Waltham, MA). Rabbit antibodies for myeloperoxidase heavy chain (MPO, sc-33596) and TLR4 (sc-10741) were from Santa Cruz Biotechnology (Dallas, Texas). Rabbit antibody for Cl-Tyr (HP5002) was from Hycult Biotech (Plymouth Meeting, PA). The chicken antibody for HMGB1 (326052233) was from SHINO-TEST Corporation (Kanagawa, Japan). Rabbit antibody for RAGE (GTX23611) was from GeneTex (Irvine, CA). Mouse antibodies for PECAM-1/CD31 (ab24590), for 8-OH-dG (ab48508), and for rat endothelial cell antigen-1 (RECA-1, ab9774) were from Abcam (Cambridge, MA). Rabbit antibody for Cox1 (sc-7950) and Cox2 (sc-7951) were from Santa Cruz Biotechnology. Mouse (ab190377) and rabbit (ab77302b) antibodies for HMGB1, and streptavidin-HRP (ab7403) were from Abcam (Cambridge, Mass.). Rabbit antibody for acetylated-HMGB1 (OASG03545) was from Aviva System Biology (San Diego, Calif.). Rabbit antibodies for Nrf2 (sc-722) and TLR4 (sc-30002) were from Santa Cruz Biotechnology (Dallas, Tex.). Rabbit antibody against Keap1 (ABS97) and mouse antibody for β-actin (A2228) were from Millipore-Sigma (St. Louis, Mo.). Rabbit antibody for cysteine sulfonyl (ADI-OSA-820) was from Enzo Life Sciences (Farmingdale, N.Y.). Mouse antibody for glutathionylated proteins (D8) and all other chemicals were from Sigma-Aldrich (St. Louis, Mo.). All antibodies were certified either by the manufacturer or were used previously and certified by the authors, as was the case for the anti-HMGB1 antibody.
Effects of Oxidative Stress on KYC Thiylation on Endothelial Cell Proteins in RLMVEC Cultures: To determine the effects of oxidative stress on KYC thiylation, RLMVEC cultures were treated with B-KYC to follow KYC thiylation with streptavidin-affinity blotting as outlined in Methods. Three different levels of oxidative stress were used to determine the effects of oxidative stress on KYC thiylation of endothelial cell proteins: media alone (baseline); media containing MPO+H2O2 (MPO-dependent); and media containing H2O2 alone (H2O2-dependent) (FIG. 29A). KYC thiylation of RLMVEC proteins at baseline was low (FIG. 29A, first two lanes).

Row | Substance | inhibitory properties (IC50) KVC versus KVVC (MPO) | fluorescent band density of B-KYC thiylated HMGB1 and MPO (HMGB1) | KYC thiylation of RLMVEC proteins (RLMVEC; H2O2-dependent (media containing H2O2 alone)) | KYC thiylation of RLMVEC proteins (RLMVEC; MPO-dependent (media containing MPO+H2O2)) | KYC thiylation of RLMVEC proteins (RLMVEC; baseline (media alone))
1 | Ac-KVVC-amide [N-acetylated, C-amidated AA(n) peptide, KVC with an added amino acid] | improvement of inhibitory properties | – | – | – | –
2 | biotin-aminohexanoyl-N-[Ahx]-KYC-amide [B-KYC] | – | decreased in the sample treated with dithiothreitol | more than observed at baseline, but not as high as MPO-dependent B-KYC thiylation | markedly increased | low

Reference: patent publication US20220409692A1, “Systems Chemico-Pharmacology Drugs and Methods of Use” (The Medical College of Wisconsin, priority 2019, published 2022)
